The IC50 is the concentration at which inhibition is half-maximal. Low readings indicate greater potency in that assay, high ones weaker potency in that assay. For orientation: melting point means the temperature of the solid-liquid transition.

Bounds are passed on as bounds.

From patent US20090203708A1, “NOVEL SUBSTITUTED-1-H-QUINAZOLINE-2,4-DIONE DERIVATIVES, PREPARATION METHOD THEREOF AND PHARMACEUTICAL COMPOSITION CONTAINING THE SAME” (Korea Research Institute of Chemical Technology, priority 2006, published 2009) come the findings set out here.

The target in series [1] is human serotonin 5-HT6 receptor (Homo sapiens, UniProt P50406). Kind of series: [3H]LSD binding assay for cloned 5-HT6 receptors.
Chain of human serotonin 5-HT6 receptor (P50406 whole entry): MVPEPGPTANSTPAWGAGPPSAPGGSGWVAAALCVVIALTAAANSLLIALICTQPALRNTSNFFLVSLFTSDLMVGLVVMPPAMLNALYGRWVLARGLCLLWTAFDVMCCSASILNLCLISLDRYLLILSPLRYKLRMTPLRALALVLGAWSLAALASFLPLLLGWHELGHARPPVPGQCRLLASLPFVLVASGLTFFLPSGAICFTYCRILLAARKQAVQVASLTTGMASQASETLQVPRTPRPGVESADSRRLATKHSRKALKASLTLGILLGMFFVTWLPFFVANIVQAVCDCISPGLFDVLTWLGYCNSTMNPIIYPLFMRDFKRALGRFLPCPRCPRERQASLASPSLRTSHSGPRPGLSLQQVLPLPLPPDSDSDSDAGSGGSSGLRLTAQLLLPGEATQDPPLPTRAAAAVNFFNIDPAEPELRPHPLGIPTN

`CCn1c(=O)c2c(N3CCN(C)CC3)cc(Cl)cc2n(Cc2ccccc2)c1=O` [Example 2, 1-benzyl-7-chloro-3-ethyl-5-(4-methyl-piperazin-1-yl)-1H-quinazoline-2,4-dione] yielded a melting point of 155 to 159 °C. This molecule also came in with an IC50 in series [1] of 3.1 nM.

Take `CCCCn1c(=O)c2c(N3CCN(C)CC3)cc(Cl)cc2n(Cc2ccccc2)c1=O` [Example 4, 1-benzyl-3-butyl-7-chloro-5-(4-methyl-piperazin-1-yl)-1H-quinazoline-2,4-dione]: the IC50 in series [1] came to 2.8 nM. In other words, the single-digit nanomolar range.

Regarding `CC(C)CCn1c(=O)c2c(N3CCN(C)CC3)cc(Cl)cc2n(Cc2ccccc2)c1=O` [Example 5, 1-benzyl-7-chloro-3-(3-methyl-butyl)-5-(4-methyl-piperazin-1-yl)-1H-quinazoline-2,4-dione], the melting point was in the range of 62 to 68 °C. This molecule also came in with an IC50 in series [1] of 3.6 nM.

Turning to `CN1CCN(c2cc(Cl)cc3c2c(=O)n(CC2CCCCC2)c(=O)n3Cc2ccccc2)CC1` [Example 6, 1-benzyl-7-chloro-3-cyclohexylmethyl-5-(4-methyl-piperazin-1-yl)-1H-quinazoline-2,4-dione], the melting point is 163 to 169 °C. This molecule registered an IC50 in series [1] of 4.2 nM. The like results for `CN1CCN(c2cc(Cl)cc3c2c(=O)n(-c2ccccc2)c(=O)n3Cc2ccccc2)CC1` [Example 8, 1-benzyl-7-chloro-5-(4-methyl-piperazin-1-yl)-3-phenyl-1H-quinazoline-2,4-dione] were, in that order, 111 to 119 °C and 167 nM. The like results for `COc1ccc(-n2c(=O)c3c(N4CCN(C)CC4)cc(Cl)cc3n(Cc3ccccc3)c2=O)cc1` [Example 9, 1-benzyl-7-chloro-3-(4-methoxy-phenyl)-5-(4-methyl-piperazin-1-yl)-1H-quinazoline-2,4-dione] were, in that order, 155 to 158 °C and 12.4 nM. The like results for `CN1CCN(c2cc(Cl)cc3c2c(=O)n(Cc2cccc(Br)c2)c(=O)n3Cc2ccccc2)CC1` [Example 15, 1-benzyl-3-(3-bromo-benzyl)-7-chloro-5-(4-methyl-piperazin-1-yl)-1H-quinazoline-2,4-dione] were, in that order, 154 to 157 °C and 2.7 nM.

`CN1CCN(c2cc(Cl)cc3c2c(=O)n(Cc2ccc(Br)cc2)c(=O)n3Cc2ccccc2)CC1` [Example 16, 1-benzyl-3-(4-bromo-benzyl)-7-chloro-5-(4-methyl-piperazin-1-yl)-1H-quinazoline-2,4-dione]: the melting point is 93 to 98 °C. This molecule displayed an IC50 in series [1] of 3.3 nM. Molecule `CN1CCN(c2cc(Cl)cc3c2c(=O)n(Cc2ccc(I)cc2)c(=O)n3Cc2ccccc2)CC1` [Example 21, 1-benzyl-7-chloro-3-(4-iodo-benzyl)-5-(4-methyl-piperazin-1-yl)-1H-quinazoline-2,4-dione] returned an IC50 in series [1] of 4.7 nM. On to `Cc1cccc(Cn2c(=O)c3c(N4CCN(C)CC4)cc(Cl)cc3n(Cc3ccccc3)c2=O)c1` [Example 23, 1-benzyl-7-chloro-3-(3-methyl-benzyl)-5-(4-methyl-piperazin-1-yl)-1H-quinazoline-2,4-dione], for which the melting point was 171 to 175 °C. Moreover, in series [1], the IC50 amounted to 2.6 nM. The like results for `COc1cccc(Cn2c(=O)c3c(N4CCN(C)CC4)cc(Cl)cc3n(Cc3ccccc3)c2=O)c1` [Example 26, 1-benzyl-7-chloro-3-(3-methoxy-benzyl)-5-(4-methyl-piperazin-1yl)-1H-quinazoline-2,4-dione] were, in that order, 98 to 110 °C and 7.9 nM.

The molecule `COc1ccc(Cn2c(=O)c3c(N4CCN(C)CC4)cc(Cl)cc3n(Cc3ccccc3)c2=O)cc1` [Example 27, 1-benzyl-7-chloro-3-(4-methoxy-benzyl)-5-(4-methyl-piperazin-1-yl)-1H-quinazoline-2,4-dione] gave a melting point of 81 to 89 °C. Also, the IC50 in series [1] was found to be 10.2 nM. The like results for `CN1CCN(c2cc(Cl)cc3c2c(=O)n(Cc2ccccc2O)c(=O)n3Cc2ccccc2)CC1` [Example 28, 1-benzyl-7-chloro-3-(2-hydroxy-benzyl)-5-(4-methyl-piperazin-1-yl)-1H-quinazoline-2,4-dione] were, in that order, 130 to 132 °C and 2.5 nM. The like results for `CN1CCN(c2cc(Cl)cc3c2c(=O)n(Cc2cccc(O)c2)c(=O)n3Cc2ccccc2)CC1` [Example 29, 1-benzyl-7-chloro-3-(3-hydroxy-benzyl)-5-(4-methyl-piperazin-1-yl)-1H-quinazoline-2,4-dione] were, in that order, 234 to 236 °C and 15 nM. The like results for `CN1CCN(c2cc(Cl)cc3c2c(=O)n(Cc2ccc(O)cc2)c(=O)n3Cc2ccccc2)CC1` [Example 30, 1-benzyl-7-chloro-3-(4-hydroxy-benzyl)-5-(4-methyl-piperazin-1-yl)-1H-quinazoline-2,4-dione] were, in that order, 138 to 140 °C and 27 nM. Regarding `CN1CCN(c2cc(Cl)cc3c2c(=O)n(Cc2ccc([N+](=O)[O-])cc2)c(=O)n3Cc2ccccc2)CC1` [Example 33, 1-benzyl-7-chloro-5-(4-methyl-piperazin-1-yl)-3-(4-nitro-benzyl)-1H-quinazoline-2,4-dione], the melting point fell in the range of 109 to 113 °C. This molecule also returned an IC50 in series [1] of 15.4 nM.

In series [1], `CN1CCN(c2cc(Cl)cc3c2c(=O)n(Cc2ccccc2N)c(=O)n3Cc2ccccc2)CC1` [Example 34, 3-(2-amino-benzyl)-1-benzyl-7-chloro-5-(4-methyl-piperazin-1-yl)-1H-quinazoline-2,4-dione] registered an IC50 of 2.5 nM. `CN1CCN(c2cc(Cl)cc3c2c(=O)n(Cc2cccc(N)c2)c(=O)n3Cc2ccccc2)CC1` [Example 35, 3-(3-amino-benzyl)-1-benzyl-7-chloro-5-(4-methyl-piperazin-1-yl)-1H-quinazoline-2,4-dione]: the melting point was in the range of 260 to 265 °C. In addition, the IC50 in series [1] is 40.2 nM. Molecule `CN1CCN(c2cc(Cl)cc3c2c(=O)n(Cc2ccc(N)cc2)c(=O)n3Cc2ccccc2)CC1` [Example 36, 3-(4-amino-benzyl)-1-benzyl-7-chloro-5-(4-methyl-piperazin-1-yl)-1H-quinazoline-2,4-dione] returned a melting point of 93 to 96 °C. In series [1], this molecule came in with an IC50 of 22.1 nM. The like results for `CN1CCN(c2cc(Cl)cc3c2c(=O)n(Cc2ccc(C#N)cc2)c(=O)n3Cc2ccccc2)CC1` [Example 37, 4-[1-benzyl-7-chloro-5-(4-methyl-piperazin-1-yl)-2,4-dioxo-1,4-dihydro-2H-quinazoline-3-ylmethyl]-benzonitrile] were, in that order, 99 to 105 °C and 27.1 nM. The like results for `COC(=O)c1ccc(Cn2c(=O)c3c(N4CCN(C)CC4)cc(Cl)cc3n(Cc3ccccc3)c2=O)cc1` [Example 38, 4-[1-benzyl-7-chloro-5-(4-methyl-piperazin-1-yl)-2,4-dioxo-1,4-dihydro-2H-quinazoline-3-ylmethyl]-benzoic acid methyl ester] were, in that order, 90 to 94 °C and 2.7 nM. The like results for `Cc1ccc(Cn2c(=O)c3c(N4CCN(C)CC4)cc(Cl)cc3n(Cc3ccccc3)c2=O)cc1C` [Example 39, 1-benzyl-7-chloro-3-(3,4-dimethyl-benzyl)-5-(4-methyl-piperazin-1-yl)-1H-quinazoline-2,4-dione] were, in that order, 96 to 99 °C and 5.1 nM. As for `CC(C)Cc1cccc(CCCn2c(=O)c3c(N4CCN(C)CC4)cc(Cl)cc3n(Cc3ccccc3)c2=O)c1` [Example 45, 1-benzyl-7-chloro-3-[3-(3-isobutyl-phenyl)-propyl]-5-(4-methyl-piperazin-1-yl)-1H-quinazoline-2,4-dione], the melting point was 56 to 62 °C. Also, the IC50 in series [1] stood at 10.5 nM.

On to `CN1CCN(c2cc(Cl)cc3c2c(=O)n(Cc2cccc4ccccc24)c(=O)n3Cc2ccccc2)CC1` [Example 46, 1-benzyl-7-chloro-5-(4-methyl-piperazin-1-yl)-3-naphthalen-1-ylmethyl-1H-quinazoline-2,4-dione], for which the melting point was in the range of 75 to 89 °C. For the same molecule, the IC50 in series [1] was found to be 3.2 nM.

In turn, `CN1CCN(c2cc(Cl)cc3c2c(=O)n(Cc2ccncc2)c(=O)n3Cc2ccccc2)CC1` [Example 48, 1-benzyl-7-chloro-5-(4-methyl-piperazin-1-yl)-3-pyridin-4-ylmethyl-1H-quinazoline-2,4-dione] came in with a melting point of 94 to 100 °C. This molecule also yielded an IC50 in series [1] of 33.3 nM. The like results for `CN1CCN(c2cc(Cl)cc3[nH]c(=O)n(Cc4ccccc4)c(=O)c23)CC1` [Example 49, 3-benzyl-7-chloro-5-(4-methyl-piperazin-1-yl)-1H-quinazoline-2,4-dione] were, in that order, 208 to 210 °C and greater than 1000 nM.

As for `CN1CCN(c2cc(Cl)cc3c2c(=O)n(Cc2ccccc2)c(=O)n3C)CC1` [Example 50, 3-benzyl-7-chloro-1-methyl-5-(4-methyl-piperazin-1-yl)-1H-quinazoline-2,4-dione], the melting point was in the range of 132 to 136 °C. This molecule also returned an IC50 in series [1] greater than 1000 nM. The like results for `CCn1c(=O)n(Cc2ccccc2)c(=O)c2c(N3CCN(C)CC3)cc(Cl)cc21` [Example 51, 3-benzyl-7-chloro-1-ethyl-5-(4-methyl-piperazin-1-yl)-1H-quinazoline-2,4-dione] were, in that order, 68 to 75 °C and 729 nM. Molecule `CCCn1c(=O)n(Cc2ccccc2)c(=O)c2c(N3CCN(C)CC3)cc(Cl)cc21` [Example 52, 3-benzyl-7-chloro-5-(4-methyl-piperazin-1-yl)-1-propyl-1H-quinazoline-2,4-dione] displayed an IC50 in series [1] of 169 nM. This counts as sub-micromolar. The same measure, in the same setting: the same measure for `CCCCn1c(=O)n(Cc2ccccc2)c(=O)c2c(N3CCN(C)CC3)cc(Cl)cc21` [Example 53, 3-benzyl-1-butyl-7-chloro-5-(4-methyl-piperazin-1-yl)-1H-quinazoline-2,4-dione]: 30.2 nM.

Turning to `Nc1ccccc1Cn1c(=O)c2c(N3CCNCC3)cc(Cl)cc2n(Cc2ccccc2)c1=O` [Example 67, 3-(2-amino-benzyl)-1-benzyl-7-chloro-5-piperazin-1-yl-1H-quinazoline-2,4-dione], in series [1], the IC50 was 3.6 nM. This IC50 lies about 8.4-fold lower than the previous one.
